Assay results as given in patent US5470737A, “Stably-transformed cells expressing human thiopurine methyltransferase” (priority 1994, dated 1995).
Entries after “also recorded” stand apart in the source; their conditions may differ.

Key:
human kidney TPMT [1] = target: T1, human kidney TPMT (Homo sapiens, UniProt P51580); details: read-out: Apparent Km value for 6-MP; cited from earlier work
T1 construct: to assay the enzyme in human kidney preparations; host or cells: human kidney
T1 sequence (P51580 1-245): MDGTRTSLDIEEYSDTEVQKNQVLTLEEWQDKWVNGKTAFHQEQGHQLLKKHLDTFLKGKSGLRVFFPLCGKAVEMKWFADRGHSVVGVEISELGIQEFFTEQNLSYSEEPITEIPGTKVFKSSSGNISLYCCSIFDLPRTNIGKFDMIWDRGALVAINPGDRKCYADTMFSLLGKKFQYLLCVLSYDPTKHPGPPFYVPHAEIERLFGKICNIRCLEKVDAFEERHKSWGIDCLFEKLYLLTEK

TPMT = details: cited from earlier work
human liver TPMT [2] = details: read-out: Apparent Km value for 6-MP; cited from earlier work
[3] = system: patients with genetically low or undetectable RBC TPMT activity; details: patients lacking or with low TPMT activity; cited from earlier work
[4] = target: T2, TPMT expressed in COS-1 cells transfected with T84 cell TPMT cDNA (Homo sapiens, UniProt P51580); experiment: DMHBA inhibition of TPMT activity expressed in transfected COS-1 cells; format: biochemical; details: COS-1 cells transfected with cDNA clone; FIG. 6
T2 sequence (P51580 1-245): T1 sequence (P51580 1-245)
Experimental: (§1) The University of Wisconsin Genetics Computer Group software package was used to analyze sequence information and to make comparisons between the sequence of the TPMT cDNA clone and the sequences of other cloned proteins. The GenBank Genetics Sequence Data Bank and the EMBL Nucleotide Sequence Database were used to search for nucleotide homologies, whereas the Swiss-Prot Protein Sequence Database was used to search for protein structural homologies. IC50 values were calculated with the GraphPAD Inplot program (GraphPAD, San Diego, Calif.).
(§2) TPMT activity in renal tissue was measured by the method of R. M. Weinshilboum et al., in Clin. Chim. Acta, 85, 323 (1978) as modified by L. C. Woodson et al., Biochem. Pharmacol., 32, 819 (1983) to assay the enzyme in human kidney preparations. […] Ado-Met as the methyl donor. Assay conditions for the measurement of TPMT in T84 human colon carcinoma cells and in COS-1 cells were identical with those used to measure the enzyme activity in human renal tissue. One unit of TPMT activity represented the formation of 1 nmol of 6-MMP per hr of incubation at 37° C.
Simian COS-1 cells were then plated in 100-mm dishes at a density of 1.5-1.8×10^6 cells/dish in DMEM with 10% fetal calf serum, and were allowed to grow overnight. Three dishes of cells were used for each transfection. […]

human kidney TPMT [5] = target: T1, human kidney TPMT; details: cited from earlier work
human liver TPMT [6] = details: cited from earlier work
T84 cell TPMT = target: T3, T84 cell TPMT (Homo sapiens, UniProt P51580); experiment: DMHBA inhibition of TPMT activity, T84 cells; format: biochemical; details: DMHBA 0.01 μM to 10 mM
T3 construct: Cytosol from T84 cells did contain TPMT enzymatic activity; host or cells: T84 human colon carcinoma cells
T3 sequence (P51580 1-245): T1 sequence (P51580 1-245)
Experimental: as §1, §2
T84 human colon carcinoma cells (American Type Culture Collection, Rockville, Md.) were grown to confluence in an equal volume mixture of Dulbecco's modified Eagle's medium (DMEM) and Ham's F12 media with 5% fetal calf serum. […]

human kidney TPMT [7] = target: T1, human kidney TPMT; experiment: DMHBA inhibition of TPMT activity, human kidney; format: biochemical; details: DMHBA 0.01 μM to 10 mM
Experimental: as §1
Renal tissue was obtained either during autopsy or from patients undergoing clinically indicated nephrectomies. Hepatic tissue was obtained from patients who underwent clinically indicated partial hepatectomies for the removal of primary or metastatic hepatic tumors. All tissue was obtained under guidelines approved by the Mayo Clinic Institutional Review Board. Macroscopically normal tissue was stored at -80° C., conditions under which TPMT activity is stable (C. L. Szumlanski et al., Pharmacogenetics, 2, 148 (1992); J. A. Van Loon et al., Drug Met. Disposit., 18, 632 (1990)). […]
TPMT activity in renal tissue was measured by the method of R. M. Weinshilboum et al., in Clin. Chim. […]

IC50 (T84 cell TPMT) [µM] | IC50 (human kidney TPMT [7]) [µM] | Compound | Km (human kidney TPMT [1]) [µM] | substrate for TPMT (in words) (TPMT) | Km (human liver TPMT [2]) [µM] | risk of myelosuppression (in words) [3] | IC50 value, TPMT activity expressed in COS-1 cells (in words) [4] | inhibition of human kidney TPMT activity (in words) (human kidney TPMT [5]) | inhibition of human liver TPMT activity (in words) (human liver TPMT [6]) | IC50 (human liver TPMT [6]; read-out: DMHBA IC50) [µM]
– | – | Sc1ncnc2nc[nH]c12 [6-MP, 6-mercaptopurine] | 300 | substrates for TPMT | 580 | even more at risk for the occurrence of severe myelosuppression; also recorded: greatly increased risk for the development of life-threatening thiopurine-induced myelosuppression | – | – | – | –
6.6 | 7.8 | COc1cc(C(=O)O)cc(O)c1OC [DMHBA, 3,4-dimethoxy-5-hydroxybenzoic acid] | – | – | – | – | nearly identical to that of the TPMT present in T84 cells | known to be inhibited | known to be inhibited | 8.5
